{
  "source": "patent US20130292614A1",
  "about": "“F[…] AS […]” (3M INNOVATIVE PROPERTIES COMPANY, priority 2011, published 2013)",
  "origin": "cited, not measured here",
  "details": "inhalation; 2.5 to 3 hour; cited from earlier work",
  "data": [
    {"smiles": "FC(F)(F)C1(F)OC1(F)F", "note": "(stereo not shown) [C3 perfluorooxirane]", "values": [
      {"measurement": "acute lethal concentration (ALC)", "value": 200, "unit": "ppm"}
    ]}
  ]
}
